Data set [1] is described as follows: Solubilization of α-bisabolol in the culture medium by RP-HPLC. It is filed as physicochemical. Conditions: after 24 hours. How it is done: α-bisabolol at a purity ≥95% (GC) was purchased from Sigma-Aldrich, St. Louis, MO. The dose-dependent solubilization of α-bisabolol in the culture medium over 24 hours was determined by a reverse-phase high performance liquid chromatography (RP-HPLC) method, developed in the Department of Food Science of Bologna University, Cesena office, Italy. All measurements were performed in duplicate. The α-bisabolol concentrations indicated throughout the article represent the calculated soluble fraction in the assay.

In a further data set the test system is leukemic blasts. In words: PARP cleavage (Western blot) and DNA ladder. It is filed as cell-based, human. Conditions: blasts of case Ph^-B-ALL #01 after α-bisabolol exposure. As for the experimental part:
Cells were homogenized at 4°C in 50 mM Tris-HCl (pH 8) containing 0.1% Nonidet-P40 (NP-40), 200 mM KCl, 2 mM MgCl2, 50 μM ZnCl2, 2 mM DTT, and protease inhibitors [1 mM phenylmethylsulfonyl fluoride (PMSF), 1 mg/mL leupeptin, and 1 mg/mL antipain]. Aliquots of the homogenates (40 μg total protein/lane) were loaded on SDS-polyacrylamide gels at the appropriate concentrations. Electrophoresis was performed at 100 V with a running buffer containing 0.25 M Tris-HCl (pH 8.3), 1.92 M glycine, and 1% SDS. The resolved proteins were electroblotted onto a nitrocellulose membrane using the iBlot™ system (Invitrogen, Carlsbad, CA). Membranes were then incubated with a mouse monoclonal IgG antibody to poly(ADP-ribose) polymerase (PARP) (Zymed, South San Francisco, CA), with a rabbit polyclonal IgG antibody to BID (Cell Signaling Technology, Danvers, MA) or with a rabbit polyclonal IgG antibody to α-tubulin (Cell Signaling Technology). The membranes were then washed and incubated with an anti-mouse or anti-rabbit IgG peroxidase-conjugated antibody (Cell Signaling Technology). The blots were washed again and then incubated with enhanced chemiluminescent detection reagents (Immun-Star™ WesternC™ Kit, Bio-Rad, Hercules, CA) according to the manufacturer's instructions. Proteins were detected using the ChemiDoc XRS Imaging System (Bio-Rad). […]

The next data set deals with mammary tumor masses. Details: method as in PMID 20524399. The following applies: HER-2 transgenic mice, 10 mg/mouse ref 2; cited from earlier work.
The next data set relates to primary Ph^-B-ALL cells. Nature of the data set: 24-hour LDH release cytotoxicity assay, ex vivo blasts. It is filed as cell-based, human. The following applies: for cytotoxicity: 24 hours. How it is done:
(§1) Viable leukemic cells were purified by conventional methods from freshly heparinized peripheral blood with a circulating blast count ≥30,000/mL, or from full-substituted bone marrow that was frozen in liquid nitrogen at diagnosis. In all cases frozen cell samples contained >95% blasts. Cell viability after thawing was always >90%, as assessed by trypan blue staining.
(§2) Cells derived from patients or normal donors were exposed for 24 hours to 20, 40, 80, and 160 μM α-bisabolol dissolved in ethanol (1:8 in order to minimize drug volumes), and when appropriate to 3 μM imatinib mesylate (Novartis, Basel, CH), representative of the in vivo active concentration. All cytotoxicity tests were performed in triplicate.
(§3) A lactate dehydrogenase (LDH) release assay was conducted as follows. Thawed cells were resuspended in RPMI-1640 (Lonza, Basel, CH) supplemented with 10% heat-inactivated fetal bovine serum (FBS, Lonza), 50 U/mL penicillin and 50 μg/mL streptomycin (complete medium, CM), seeded at a density of 2 × 10^6 cell/mL and incubated at 37°C in 5% CO2. After 24 hours, the cells were treated with α-bisabolol (or ethanol as a vehicle control) as specified above. Cytotoxicity was determined using the Cytotoxicity Detection Kit^PLUS according to the manufacturer's recommendations (Roche, Mannheim, DE). LDH leakage was measured as the ratio of treatment-induced LDH to spontaneous LDH release. α-bisabolol and imatinib mesylate data were reported as the percent cytotoxicity for treated compared to untreated cells and plotted as dose-response curves over 24 hours. The half maximal inhibitory concentration (IC50) was determined when appropriate.
(§4) Student's t-test for means, chi-squared tests, Mann-Whitney U test and Kruskall-Wallis analysis of variance by ranks were considered significant for p values < 0.05.
For orientation: LDH leaks from cells whose membrane has failed.

For a further data set, the system named is AML cells. Described as above. It is filed as cell-based, human. The following applies: for cytotoxicity: 24 hours, mean ± SD. How it is done:
as §1, §2, §3, §4

A word on the IC50: it is the midpoint of a concentration-inhibition curve. Read a low IC50 as greater potency. In the case of `CC(C)=CCC[C@](C)(O)[C@@H]1CC=C(C)CC1` [α-bisabolol], the “incremental ratio of measured to added concentrations” value in data set [1] (0-250 μM added, double series of 7 concentrations) is given as 0.65. Besides, the “fraction of the α-bisabolol added measured in the culture medium” value in data set [1] (RP-HPLC) is on record as “around 65%”. The “PARP cleavage and DNA laddering” value in the data set with leukemic blasts is “underwent PARP cleavage and DNA laddering”. The “effect on palpable mammary tumor masses” value in the data set on mammary tumor masses is “decrease in the number of palpable mammary tumor masses”. The IC50 in the data set on primary Ph^-B-ALL cells (Homo sapiens, n 14, 24-hour) was 33 ± 15 µM; with AML cells (Homo sapiens, n 14, 24-hour), 54 ± 8 µM. The cytotoxicity was determined as 37 ± 36% in the data set with primary Ph^-B-ALL cells (n 14, 20 μM α-bisabolol, mean ± SD); 55 ± 37% in the data set on primary Ph^-B-ALL cells (n 14, 40 μM α-bisabolol, mean ± SD); 87 ± 12% with primary Ph^-B-ALL cells (n 14, 80 μM α-bisabolol, mean ± SD); 100% in the data set on primary Ph^-B-ALL cells (n 14, 160 μM α-bisabolol); 10 ± 9% in the data set with AML cells (n 14, 20 μM α-bisabolol); 32 ± 21% in the data set on AML cells (n 14, 40 μM α-bisabolol). For the same compound, the cytotoxicity amounted to 72 ± 11% with AML cells (n 14, 80 μM α-bisabolol) and 96 ± 4% in the data set with AML cells (n 14, 160 μM α-bisabolol).

Source of the values: publication PMC3112094, “Pro-apoptotic activity of α-bisabolol in preclinical models of primary human acute leukemia cells” (Journal of Translational Medicine, 2011).
